According to publication PMC8092876, “A Leucyl-tRNA Synthetase Inhibitor with Broad-Spectrum Antimycobacterial Activity” (Antimicrobial Agents and Chemotherapy, 2021):
In brackets after ≈: the same amount, converted by molar mass. Like-named read-outs stand apart in the source and are kept apart here.

Columns and labels:
[1] = Mouse pharmacokinetics, oral administration; format: in vivo; details: for AUC: female, C57BL/6, whole blood
Method: (§1) For pharmacokinetic studies, CD-1 male mice (22 to 25 g) were used for intravenous route and C57BL/6 female mice (18 to 20 g) were used for oral route. All animal studies were ethically reviewed and carried out in accordance with European Directive 2010/63/EU and the GSK policy on the care, welfare, and treatment of animals.
(§2) EC/11770 was administered by intravenous route at 1 mg/kg single dose in saline and by oral gavage at 1 mg/kg and 10 mg/kg single doses in 1% methyl cellulose (1% MC). Aliquots of 20 μl of blood were taken from the lateral tail vein by puncture from each mouse (n = 3 per route and dose) at 5, 15, and 30 min 1, 2, 4, 6, 8, and 24 h postdose for intravenous route and at 15, 30, and 45 min 1, 2, 4, 6, 8, and 24 h postdose for oral route. The blood aliquots were mixed with 40 μl of water and stored at −80°C prior to analysis. The samples were processed by protein precipitation: aliquots of 20 μl were mixed with acetonitrile/methanol (80:20 vol/vol) and then filtered in 0.45 μm well-plates (hydrophobic polytetrafluorethylene [PTFE], Millipore). The filtrates were analyzed by UPLC-MS/MS for the establishment of compound concentration. The ultraperformance liquid chromatography (UPLC)-MS/MS system included a UPLC Acquity (Waters) and an API4000 mass spec. (AB Sciex). A volume of 7.5 μl of sample was injected into the system, with an UPLC solvent gradient of 2 min and with a positive multiple reaction monitoring (MRM) mass detection mode.
(§3) Pharmacokinetic analysis was performed by noncompartmental data analysis (NCA) with Phoenix WinNonlin 6.3 (Pharsight, Certara L.P), and supplementary analysis was performed with GraphPad Prism 6 (GraphPad Software, Inc.).

[2] = test system: M. abscessus Bamboo RM3 (LeuS V417M); test: microbe, parasite or virus in culture; format: cell-based; details: RM3, batch 1, LeuS V417M
[3] = Mouse pharmacokinetics, intravenous administration; format: in vivo
Method: as §1, §2, §3

[4] = test system: M. abscessus subsp. abscessus M422; test: MIC assay in 96-well plate format; format: cell-based; details: Mycobacteroides abscessus; M. abscessus subsp. abscessus M422, clinical isolate
[5] = test system: M. abscessus subsp. bolletii M506; test: MIC assay in 96-well plate format; format: cell-based; details: Mycobacteroides abscessus; M. abscessus subsp. bolletii M506, clinical isolate
[6] = Kinetic aqueous solubility assay (CLND); format: physicochemical; details: aqueous buffer, kinetic from dmso stock, pH 7.4 phosphate-buffered saline
Method: The aqueous solubility of test compounds was measured using an in-house method utilizing quantification via chemiluminescent nitrogen detection (CLND): 5 μl of 10 mM DMSO stock solution was diluted to 100 μl with pH 7.4 phosphate-buffered saline, equilibrated for 1 h at room temperature, and filtered through Millipore Multiscreen HTS-PCF filter plates (MSSL BPC). The eluent is quantified by a suitably calibrated flow injection chemiluminescent nitrogen detection (CLND or CAD). This assay has a dynamic range between the lower detection limit of 1 and 500 μM, governed by the protocol’s 1:20 dilution into pH 7.4 phosphate buffer solution from nominal 10 mM DMSO stock.

[7] = test system: M. abscessus Bamboo RM5 (LeuS V417M); test: microbe, parasite or virus in culture; format: cell-based; details: RM5, batch 2, LeuS V417M
M. avium 11 = test: MIC assay in 96-well plate format; format: cell-based, M. avium subsp. hominissuis; details: Mycobacterium avium, 96 h; M. avium 11, 7H9, 4 days; read-out: MIC
[8] = test system: M. tuberculosis H37Rv ATCC 27294; test: MIC assay in 96-well plate format; format: cell-based; details: Mycobacterium tuberculosis, 168 h
[9] = test system: M. abscessus subsp. abscessus M337; test: MIC assay in 96-well plate format; format: cell-based; details: Mycobacteroides abscessus; M. abscessus subsp. abscessus M337, clinical isolate
M. abscessus Bamboo = test: MIC and MBC determination in culture tubes (planktonic)
Method: M. abscessus Bamboo culture was grown to mid-log-phase (OD600 = 0.4 to 0.6) and diluted to OD600 = 0.1 (1 × 10^7 CFU/ml). Aliquots of 1.2 ml of the resulting bacteria suspension were transferred into 14 ml vented, round-bottom tubes (Thermo Fisher 150268, Rochester, NY, United States). A 10-point 2-fold dilution series of the compound was prepared, starting at 100 times the desired highest concentration. The compound concentration range tested was 100 to 0.195 μM. For each drug concentration tested, 12 μl of drug stock was added to two tubes and vortexed. Aliquots of 12 μl of DMSO were added to two tubes as the untreated controls (1% final DMSO concentration). From each tube, 200 μl was transferred to wells on a 96-well plate and the OD600 was measured using a Tecan Infinite M200 plate reader (day 0 reading). The tubes (1 ml final volume) were incubated on a tilted rack at 37°C on an orbital shaker at 220 rpm. On day 2, tubes were vortexed before transferring 200 μl onto a 96-well plate to measure the OD600 again (day 2 reading). To determine the MIC, day 0 and day 2 OD600 values were analyzed as previously described for MIC determination in 96-well plate format. To determine the MBC, CFU measurement was done for the OD600 = 0.1 bacteria suspension on day 0 and for each tube on day 2. Specifically, serial 10-fold dilutions were prepared in phosphate-buffered saline (Thermo Fisher 10010023) containing 0.025% Tween 80 (PBS/Tween 80) and plated on 7H10 agar. The MBC was defined as the lowest concentration of drug that reduced the CFU/ml value by 10-fold relative to the day 0 CFU/ml value.

[10] = TB efficacy studies; stated as known, no reference given; cited from earlier work
[11] = test system: M. abscessus subsp. abscessus M404; test: MIC assay in 96-well plate format; format: cell-based; details: Mycobacteroides abscessus; M. abscessus subsp. abscessus M404, clinical isolate
[12] = test system: M. abscessus subsp. massiliense M111; test: MIC assay in 96-well plate format; format: cell-based; details: Mycobacteroides abscessus; M. abscessus subsp. massiliense M111, clinical isolate
Stability in microsomes = format: in vitro ADME
Method: Intrinsic clearance (CLi) values were determined in mouse and human liver microsomes. Test compounds (final concentration 0.5 μM) were incubated at 37°C for 30 min in 50 mM potassium phosphate buffer (pH 7.4) containing 0.5 mg microsomal protein/ml. The reaction was started by addition of cofactor NADPH. At 0, 5, and 20 min, an aliquot (90 μl) was taken, quenched with acetonitrile-methanol containing an appropriate internal standard, centrifuged, and analyzed by liquid chromatography-tandem mass spectrometry (LC-MS/MS). The intrinsic clearance (CLi) was determined using the following equation: CLi = k(ml of incubation/mg microsomal protein) × (mg microsomal protein/g liver)where k is the turnover rate constant of the ln(% remaining compound) versus time regression and mg microsomal protein/g liver is 52.5 for both mouse and human.

[13] = test system: M. abscessus Bamboo RM4 (LeuS T327R); test: microbe, parasite or virus in culture; format: cell-based; details: Mycobacteroides abscessus
[14] = mouse, oral 10 mg/kg, average (SD)

CC(C)(O)COc1ccc(Br)c2c1B(O)O[C@@H]2CN [EC/11770]
AUC ([1]; mouse, oral 1 mg/kg, average (SD), read-out: AUC0–24_1 mg/kg): 3560 ng·h/mL
AUC ([1]; mouse, oral 10 mg/kg, average (SD), read-out: AUC0–24_10 mg/kg): 40500 ng·h/mL
Cmax_1 mg/kg ([1]; mouse (C57BL/6 female), oral 1 mg/kg, average (SD)): 341 (51) ng/ml
%F_1 mg/kg ([1]; mouse, oral 1 mg/kg): 100%
DNAUC0–24_1 mg/kg ([1]; mouse, oral 1 mg/kg, average (SD)): 3,556 (179) ng h/ml per mg/kg
Tmax_1 mg/kg ([1]; mouse, oral 1 mg/kg, range of values): 1.0−2.0 h
%F_10 mg/kg ([1]; mouse, oral 10 mg/kg): 100%
time above M. abscessus biofilm MIC ([1]; mouse, oral 10 mg/kg): approximately 60%
time above MIC in M. abscessus planktonic cultures ([1]; mouse, oral 10 mg/kg): 100%
Cmax_10 mg/kg [1, 14]: 4,393 (1,260) ng/ml
DNAUC0–24_10 mg/kg [1, 14]: 4,053 (908) ng h/ml per mg/kg
Tmax_10 mg/kg ([1]; mouse, oral 10 mg/kg, range of values): 0.75−2.0 h
MIC ([2]; Mycobacteroides abscessus): 60 to 75 µM (≈ 19.8 to 24.7 µg/mL)
MIC [2]: 62 µM (≈ 20.5 µg/mL)
half-life ([3]; male, CD-1, whole blood, mouse, intravenous 1 mg/kg, average (SD)): 5.3 h
Vd ([3]; male, CD-1, whole blood, mouse, intravenous 1 mg/kg, average (SD), read-out: Vss): 2.4 L/kg
AUC(0-inf) ([3]; male, CD-1, mouse, intravenous 1 mg/kg, whole blood, average (SD)): 3340 ng·h/mL
in vivo clearance as share of liver blood flow in mice ([3]; mouse, intravenous 1 mg/kg, liver blood flow 90 to 126 ml/min/kg): approximately 5%
clearance ([3]; whole blood, mouse (CD-1 male), intravenous 1 mg/kg in saline, average (SD), read-out: In vivo CL): 5 mL/min/kg
MIC [4]: 0.33 µM (≈ 0.109 µg/mL)
MIC [5]: 0.48 µM (≈ 0.158 µg/mL)
solubility at 1 h [6]: 349 µM (≈ 115 µg/mL)
MIC ([7]; Mycobacteroides abscessus): 60 to 75 µM (≈ 19.8 to 24.7 µg/mL)
MIC [7]: 75 µM (≈ 24.7 µg/mL)
MIC (M. avium 11): 4 µM (≈ 1.32 µg/mL)
MIC [8]: 0.56 µM (≈ 0.185 µg/mL)
MIC [9]: 0.5 µM (≈ 0.165 µg/mL)
MBC (M. abscessus Bamboo; Mycobacteroides abscessus): > 100 µM
MIC (M. abscessus Bamboo; Mycobacteroides abscessus, 48 h): 3 µM (≈ 0.99 µg/mL)
MIC (M. abscessus Bamboo; planktonic M. abscessus Bamboo in culture tubes, day 2): 3.0 µM (≈ 0.99 µg/mL)
MBC (M. abscessus Bamboo; planktonic M. abscessus Bamboo in culture tubes, day 2, 10-fold CFU/ml reduction vs day 0): >100 µM
tolerated dose [10]: up to 100 mg/kg
MIC [11]: 0.52 µM (≈ 0.172 µg/mL)
MIC [12]: 0.95 µM (≈ 0.313 µg/mL)
Human in vitro CLint (Stability in microsomes; human hepatic microsomes): <0.5 <0.5 ml/min/g tissue
Mouse in vitro CLint (Stability in microsomes; mouse hepatic microsomes): <0.5 <0.5 ml/min/g tissue
MIC [13]: > 100 µM
